Measurements as given in ChEMBL document CHEMBL1201862, “PubChem BioAssay data set” (2004).
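All cell lines were grown in 96-well plates and treated with compound for 48 hours. At the GI50, growth is halved.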 Activity calls are given as the source filed them. Cut-off read from the data, not from the text of the source: active = GI50 up to about 1.1 µM and inactive = higher. Where a SMILES comes first, the peptide text is derived from it. [ ]: non-standard residue; d: D form. Phe(4-Cl) = N[CH](Cc1ccc(Cl)cc1)C(=O)O

What was measured:
Assay in all cases: inhibition of tumour cell growth, NCI panel, 48 h
RPMI-8226 = system: RPMI-8226
RXF 393 = system: RXF 393
KM12 = system: KM12
786-0 = system: 786-0
CAKI-1 = system: CAKI-1
SK-OV-3 = system: SK-OV-3
LXFL 529 = system: LXFL 529
K562 = system: K562
NCI-H226 = system: NCI-H226
SF-295 = system: SF-295
UO-31 = system: UO-31
M19-MEL = system: M19-MEL
SN12C = system: SN12C
HCT-15 = system: HCT-15
KM-20L2 = system: KM-20L2
EKVX = system: EKVX
M14 = system: M14
UACC-257 = system: UACC-257
HL-60 = system: HL-60
SK-MEL-28 = system: SK-MEL-28
U-251 = system: U-251
RXF 631 = system: RXF 631
SF-268 = system: SF-268
COLO 205 = system: COLO 205
SW-620 = system: SW-620
UACC-62 = system: UACC-62
HCT-116 = system: HCT-116
SNB-75 = system: SNB-75
HT-29 = system: HT-29
OVCAR-4 = system: OVCAR-4
DMS-114 = system: DMS-114
MOLT-4 = system: MOLT-4
NCI-H460 = system: NCI-H460
TK-10 = system: TK-10
A498 = system: A498
CCRF-CEM = system: CCRF-CEM
ACHN = system: ACHN
OVCAR-8 = system: OVCAR-8
SF-539 = system: SF-539
NCI-H23 = system: NCI-H23
Malme-3M = system: Malme-3M
SNB-78 = system: SNB-78
NCI-H522 = system: NCI-H522
OVCAR-3 = system: OVCAR-3
HOP-62 = system: HOP-62
DMS-273 = system: DMS-273
LOX IMVI = system: LOX IMVI
OVCAR-5 = system: OVCAR-5
A549 = system: A549
IGROV-1 = system: IGROV-1
SK-MEL-5 = system: SK-MEL-5
SNB-19 = system: SNB-19
HOP-92 = system: HOP-92
DLD-1 = system: DLD-1
HCC 2998 = system: HCC 2998
SK-MEL-2 = system: SK-MEL-2
HOP-18 = system: HOP-18
XF498 = system: XF498

## CC1S(=O)(=O)OCCOS1(=O)=O
RPMI-8226
  GI50: > 100 µM (inactive)
RXF 393
  GI50: > 73.5 µM (inactive)
KM12
  GI50: > 100 µM (inactive)
786-0
  GI50: 46.2 µM (inactive)
CAKI-1
  GI50: 53.3 µM (inactive)
SK-OV-3
  GI50: > 100 µM (inactive)
LXFL 529
  GI50: > 100 µM (inactive)
K562
  GI50: > 100 µM (inactive)
NCI-H226
  GI50: > 100 µM (inactive)
SF-295
  GI50: 50.4 µM (inactive)
UO-31
  GI50: > 100 µM (inactive)
M19-MEL
  GI50: > 100 µM (inactive)
SN12C
  GI50: 77.4 µM (inactive)
HCT-15
  GI50: > 100 µM
KM-20L2
  GI50: > 100 µM (inactive)
EKVX
  GI50: > 100 µM (inactive)
M14
  GI50: > 100 µM (inactive)
UACC-257
  GI50: > 94.2 µM (inactive)
HL-60
  GI50: 29.7 µM (inactive)
SK-MEL-28
  GI50: > 100 µM (inactive)
U-251
  GI50: 28.8 µM (inactive)
RXF 631
  GI50: 31.7 µM (inactive)
SF-268
  GI50: 32.1 µM (inactive)
COLO 205
  GI50: > 100 µM (inactive)
SW-620
  GI50: > 100 µM (inactive)
UACC-62
  GI50: 22.6 µM (inactive)
HCT-116
  GI50: > 95.7 µM (inactive)
SNB-75
  GI50: 67.9 µM (inactive)
HT-29
  GI50: > 100 µM (inactive)
OVCAR-4
  GI50: > 100 µM (inactive)
DMS-114
  GI50: 39.2 µM (inactive)
MOLT-4
  GI50: 18 µM (inactive)
NCI-H460
  GI50: 31.7 µM (inactive)
TK-10
  GI50: > 100 µM (inactive)
A498
  GI50: > 100 µM (inactive)
CCRF-CEM
  GI50: 50 µM (inactive)
ACHN
  GI50: 46.5 µM (inactive)
OVCAR-8
  GI50: > 100 µM (inactive)
SF-539
  GI50: 46.6 µM (inactive)
NCI-H23
  GI50: > 76.9 µM (inactive)
Malme-3M
  GI50: > 100 µM (inactive)
SNB-78
  GI50: > 100 µM (inactive)
NCI-H522
  GI50: > 78 µM (inactive)
OVCAR-3
  GI50: 74 µM (inactive)
HOP-62
  GI50: > 100 µM (inactive)
DMS-273
  GI50: 60 µM (inactive)
LOX IMVI
  GI50: 52.2 µM (inactive)
OVCAR-5
  GI50: > 100 µM (inactive)
A549
  GI50: > 95.5 µM (inactive)
IGROV-1
  GI50: > 100 µM (inactive)
SK-MEL-5
  GI50: 50.1 µM (inactive)
SNB-19
  GI50: 39.7 µM (inactive)
HOP-92
  GI50: > 100 µM (inactive)
DLD-1
  GI50: > 100 µM (inactive)
HCC 2998
  GI50: > 100 µM (inactive)
SK-MEL-2
  GI50: > 100 µM (inactive)
HOP-18
  GI50: > 100 µM (inactive)

## CCOC(=O)C1=C(NC)OCC1=O
RPMI-8226
  GI50: > 100 µM (inactive)
RXF 393
  GI50: > 100 µM (inactive)
KM12
  GI50: > 100 µM (inactive)
786-0
  GI50: > 100 µM (inactive)
CAKI-1
  GI50: > 100 µM (inactive)
SK-OV-3
  GI50: > 100 µM (inactive)
LXFL 529
  GI50: > 100 µM (inactive)
K562
  GI50: > 100 µM (inactive)
XF498
  GI50: > 100 µM (inactive)
NCI-H226
  GI50: > 100 µM (inactive)
SF-295
  GI50: > 100 µM (inactive)
UO-31
  GI50: > 100 µM (inactive)
M19-MEL
  GI50: > 100 µM (inactive)
SN12C
  GI50: > 100 µM (inactive)
HCT-15
  GI50: > 100 µM
KM-20L2
  GI50: > 100 µM (inactive)
EKVX
  GI50: > 100 µM (inactive)
M14
  GI50: > 100 µM (inactive)
UACC-257
  GI50: > 100 µM (inactive)
HL-60
  GI50: > 100 µM (inactive)
SK-MEL-28
  GI50: > 100 µM (inactive)
U-251
  GI50: > 100 µM (inactive)
RXF 631
  GI50: > 100 µM (inactive)
SF-268
  GI50: > 100 µM (inactive)
COLO 205
  GI50: > 100 µM (inactive)
SW-620
  GI50: > 100 µM (inactive)
UACC-62
  GI50: > 100 µM (inactive)
HCT-116
  GI50: > 100 µM (inactive)
SNB-75
  GI50: > 100 µM (inactive)
HT-29
  GI50: > 100 µM (inactive)
OVCAR-4
  GI50: > 100 µM (inactive)
DMS-114
  GI50: > 100 µM (inactive)
NCI-H460
  GI50: > 100 µM (inactive)
TK-10
  GI50: > 100 µM (inactive)
A498
  GI50: > 100 µM (inactive)
CCRF-CEM
  GI50: > 100 µM (inactive)
ACHN
  GI50: > 100 µM (inactive)
OVCAR-8
  GI50: > 100 µM (inactive)
SF-539
  GI50: > 100 µM (inactive)
NCI-H23
  GI50: > 100 µM (inactive)
Malme-3M
  GI50: > 100 µM (inactive)
SNB-78
  GI50: > 100 µM (inactive)
NCI-H522
  GI50: > 100 µM (inactive)
OVCAR-3
  GI50: > 100 µM (inactive)
HOP-62
  GI50: > 100 µM (inactive)
DMS-273
  GI50: > 100 µM (inactive)
LOX IMVI
  GI50: > 100 µM (inactive)
OVCAR-5
  GI50: > 100 µM (inactive)
A549
  GI50: > 100 µM (inactive)
IGROV-1
  GI50: > 100 µM (inactive)
SK-MEL-5
  GI50: > 100 µM (inactive)
SNB-19
  GI50: > 100 µM (inactive)
HOP-92
  GI50: > 100 µM (inactive)
HCC 2998
  GI50: > 100 µM (inactive)
SK-MEL-2
  GI50: > 100 µM (inactive)

## CC(O)C(NC(=O)C(Cc1ccccc1)NC(=O)C(NC(=O)C(CCCCN)NC(=O)C(Cc1c[nH]c2ccccc12)NC(=O)C(Cc1ccc(O)cc1)NC(=O)C(Cc1ccc(Cl)cc1)NC(=O)C(N)Cc1ccccc1)C(C)O)C(N)=O (centres undefined) (H-F[Phe(4-Cl)]YWKTFT-NH2; configuration not given here)
RPMI-8226
  GI50: 14 µM (inactive)
RXF 393
  GI50: 16 µM (inactive)
KM12
  GI50: 13.5 µM (inactive)
786-0
  GI50: 22.4 µM (inactive)
CAKI-1
  GI50: 21.2 µM (inactive)
SK-OV-3
  GI50: 27.6 µM (inactive)
LXFL 529
  GI50: 18.4 µM (inactive)
K562
  GI50: 15.6 µM (inactive)
XF498
  GI50: 14.2 µM (inactive)
SF-295
  GI50: 8.53 µM (inactive)
UO-31
  GI50: 19 µM (inactive)
M19-MEL
  GI50: 21.5 µM (inactive)
SN12C
  GI50: 41.8 µM (inactive)
HCT-15
  GI50: 17.9 µM
KM-20L2
  GI50: 21.2 µM (inactive)
EKVX
  GI50: 16.4 µM (inactive)
M14
  GI50: 22.7 µM (inactive)
UACC-257
  GI50: > 10 µM (inactive)
HL-60
  GI50: 15.3 µM (inactive)
SK-MEL-28
  GI50: 20.7 µM (inactive)
U-251
  GI50: 18.7 µM (inactive)
RXF 631
  GI50: 19.4 µM (inactive)
COLO 205
  GI50: 25.9 µM (inactive)
UACC-62
  GI50: 19.1 µM (inactive)
HCT-116
  GI50: 18.9 µM (inactive)
SNB-75
  GI50: 21 µM (inactive)
HT-29
  GI50: 23.4 µM (inactive)
OVCAR-4
  GI50: 23.9 µM (inactive)
DMS-114
  GI50: 17.3 µM (inactive)
MOLT-4
  GI50: 25.9 µM (inactive)
NCI-H460
  GI50: 13.7 µM (inactive)
A498
  GI50: 18.8 µM (inactive)
CCRF-CEM
  GI50: 15.8 µM (inactive)
ACHN
  GI50: 21.9 µM (inactive)
OVCAR-8
  GI50: 23.9 µM (inactive)
SF-539
  GI50: 20 µM (inactive)
NCI-H23
  GI50: 19.8 µM (inactive)
SNB-78
  GI50: 25.4 µM (inactive)
OVCAR-3
  GI50: 17.4 µM (inactive)
HOP-62
  GI50: 20.5 µM (inactive)
DMS-273
  GI50: 33 µM (inactive)
A549
  GI50: 16.2 µM (inactive)
IGROV-1
  GI50: 19.9 µM (inactive)
SNB-19
  GI50: 18.4 µM (inactive)
DLD-1
  GI50: 20.3 µM (inactive)
HCC 2998
  GI50: 25.4 µM (inactive)
SK-MEL-2
  GI50: 19.9 µM (inactive)
